Patent US7083941B2, “Compositions and methods for gender sorting” (priority 2001, dated 2006)
Where two headings read alike, the source gives them in different places.

Molecular target: T1, human estrogen receptor (Homo sapiens, UniProt P03372, G400V)
T1 sequence (P03372 1-595 G400V): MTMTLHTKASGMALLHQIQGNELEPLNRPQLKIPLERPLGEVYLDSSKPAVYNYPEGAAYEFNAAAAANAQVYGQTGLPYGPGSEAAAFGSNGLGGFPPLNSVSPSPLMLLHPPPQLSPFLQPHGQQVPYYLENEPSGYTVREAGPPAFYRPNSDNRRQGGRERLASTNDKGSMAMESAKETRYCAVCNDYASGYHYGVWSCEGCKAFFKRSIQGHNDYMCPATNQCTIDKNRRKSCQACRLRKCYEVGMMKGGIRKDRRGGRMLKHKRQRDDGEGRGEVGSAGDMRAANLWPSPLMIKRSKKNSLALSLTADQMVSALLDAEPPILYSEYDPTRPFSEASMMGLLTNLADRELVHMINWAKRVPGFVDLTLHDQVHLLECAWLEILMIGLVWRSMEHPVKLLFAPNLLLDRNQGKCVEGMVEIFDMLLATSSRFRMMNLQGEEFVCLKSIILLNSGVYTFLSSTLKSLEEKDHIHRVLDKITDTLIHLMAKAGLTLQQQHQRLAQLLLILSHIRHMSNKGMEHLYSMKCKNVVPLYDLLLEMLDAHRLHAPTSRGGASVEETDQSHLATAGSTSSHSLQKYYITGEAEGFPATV

[1] = cross-activity determined at concentration of 50% maximum potency, 17-β Estradiol = 100

Protocol: 100 μl of the cell culture was spiked into each well of a 96-well microtiter plate. Ligand (2 μl diluted in DMSO) was added to each well to produce a final concentration of 2% DMSO. As a control, 2 μl of DMSO were also added to additional test wells.
The cells were incubated in the presence of the ligand in a shaker at 30° C. […] The relative activity of β-galactosidase was calculated as follows: (1000×ODreaction)/(tincubation×ODculture).

Row | Compound | Percent Cross Reactivity [%] | Percent Cross Reactivity [1] [%]
1 | 4-Hydroxytamoxifen | <0.25 | –
2 | COc1cc2c(cc1O)CC[C@@H]1[C@@H]2CC[C@]2(C)C(=O)CC[C@@H]12 [2-Methoxyestrone] | – | <0.25
3 | C[C@]12CC[C@@H]3c4ccc(O)cc4CC[C@H]3[C@@H]1C[C@@H](O)C2=O [16-Hydroxyestrone] | – | 4.0
4 | C[C@]12CCC(=O)C=C1CC[C@@H]1[C@@H]2CC[C@]2(C)C(=O)CC[C@@H]12 [Androstenedione] | – | <0.05
5 | C[C@]12C[C@H](O)[C@H]3[C@@H](CCC4=CC(=O)CC[C@@]43C)[C@@H]1CC[C@@H]2C(=O)CO [Corticosterone] | – | <0.025
6 | C#C[C@]1(O)CC[C@H]2[C@@H]3CCC4=Cc5oncc5C[C@]4(C)[C@H]3CC[C@@]21C [Danasol] | – | <0.025
7 | C[C@]12CC[C@H](O)CC1=CC[C@@H]1[C@@H]2CC[C@]2(C)C(=O)CC[C@@H]12 [Dehydroepiandrosterone] | – | <0.05
8 | C[C@H]1CC(=O)C[C@@H]2CC[C@H]3[C@@H]4CC[C@H](O)[C@@]4(C)CC[C@@H]3[C@]21C [Mesterolone] | – | <0.05
9 | CC(=O)[C@H]1CC[C@H]2[C@@H]3CCC4=CC(=O)CC[C@]4(C)[C@H]3CC[C@]12C [Progesterone] | – | <0.025
10 | C[C@]12CC[C@H]3[C@@H](CCC4=CC(=O)CC[C@@]43C)[C@@H]1CC[C@@H]2O [Testosterone] | – | <0.05
